In paper PMC3395220 (Journal of Medicinal Chemistry, 2012):
Where two headings read alike, the source gives them in different places.

Tests used:
[1] = tested on: CCRF-CEM; assay type: cell-based, human; details: 10^Δ2-x, relative to compound 2
[2] = tested on: HL-60(TB); assay type: cell-based, human; details: 10^Δ2-x, relative to compound 2
[3] = tested on: RPMI-8226; assay type: cell-based, human; details: 10^Δ2-x, relative to compound 2
[4] = tested on: SR; assay type: cell-based, human; details: 10^Δ2-x, relative to compound 2
[5] = tested on: A549/ATCCC; assay type: cell-based, human; details: 10^Δ2-x, relative to compound 2
[6] = tested on: EKVX; assay type: cell-based, human; details: 10^Δ2-x, relative to compound 2
[7] = tested on: NCI-H226; assay type: cell-based, human; details: 10^Δ2-x, relative to compound 2
[8] = tested on: NCI-H23; assay type: cell-based, human; details: 10^Δ2-x, relative to compound 2
[9] = tested on: NCI-H460; assay type: cell-based, human; details: 10^Δ2-x, relative to compound 2
[10] = tested on: COLO 205; assay type: cell-based, human; details: 10^Δ2-x, relative to compound 2
[11] = tested on: HCT-116; assay type: cell-based, human; details: 10^Δ2-x, relative to compound 2
[12] = tested on: HCT-15; assay type: cell-based, human; details: 10^Δ2-x, relative to compound 2
[13] = tested on: HT29; assay type: cell-based, human; details: 10^Δ2-x, relative to compound 2
[14] = tested on: KM12; assay type: cell-based, human; details: 10^Δ2-x, relative to compound 2
[15] = tested on: SF-268; assay type: cell-based, human; details: 10^Δ2-x, relative to compound 2
[16] = tested on: SF-295; assay type: cell-based, human; details: 10^Δ2-x, relative to compound 2
[17] = tested on: SF-539; assay type: cell-based, human; details: 10^Δ2-x, relative to compound 2
[18] = tested on: SNB-19; assay type: cell-based, human; details: 10^Δ2-x, relative to compound 2
[19] = tested on: SNB-75; assay type: cell-based, human; details: 10^Δ2-x, relative to compound 2
[20] = tested on: U251; assay type: cell-based, human; details: 10^Δ2-x, relative to compound 2
[21] = tested on: LOX IMVI; assay type: cell-based, human; details: 10^Δ2-x, relative to compound 2
[22] = tested on: M14; assay type: cell-based, human; details: 10^Δ2-x, relative to compound 2
[23] = tested on: MDA-MB-435; assay type: cell-based, human; details: 10^Δ2-x, relative to compound 2
[24] = tested on: SK-MEL2; assay type: cell-based, human; details: 10^Δ2-x, relative to compound 2
[25] = tested on: SK-MEL28; assay type: cell-based, human; details: 10^Δ2-x, relative to compound 2
[26] = tested on: SK-MEL-5; assay type: cell-based, human; details: 10^Δ2-x, relative to compound 2
[27] = tested on: UACC-257; assay type: cell-based, human; details: 10^Δ2-x, relative to compound 2
[28] = tested on: UACC-62; assay type: cell-based, human; details: 10^Δ2-x, relative to compound 2
[29] = tested on: IGROV1; assay type: cell-based, human; details: 10^Δ2-x, relative to compound 2
[30] = tested on: OVCAR-3; assay type: cell-based, human; details: 10^Δ2-x, relative to compound 2
[31] = tested on: OVCAR-5; assay type: cell-based, human; details: 10^Δ2-x, relative to compound 2
[32] = tested on: OVCAR-8; assay type: cell-based, human; details: 10^Δ2-x, relative to compound 2
[33] = tested on: A498; assay type: cell-based, human; details: 10^Δ2-x, relative to compound 2
[34] = tested on: ACHN; assay type: cell-based, human; details: 10^Δ2-x, relative to compound 2
[35] = tested on: CAKI-1; assay type: cell-based, human; details: 10^Δ2-x, relative to compound 2
[36] = tested on: RXF 393; assay type: cell-based, human; details: 10^Δ2-x, relative to compound 2
[37] = tested on: SN12C; assay type: cell-based, human; details: 10^Δ2-x, relative to compound 2
[38] = tested on: UO-31; assay type: cell-based, human; details: 10^Δ2-x, relative to compound 2
[39] = tested on: PC-3; assay type: cell-based, human; details: 10^Δ2-x, relative to compound 2
[40] = tested on: DU-145; assay type: cell-based, human; details: 10^Δ2-x, relative to compound 2
[41] = tested on: MCF7; assay type: cell-based, human; details: 10^Δ2-x, relative to compound 2
[42] = tested on: MDA-MB-231/ATCC; assay type: cell-based, human; details: 10^Δ2-x, relative to compound 2
[43] = tested on: BT-549; assay type: cell-based, human; details: 10^Δ2-x, relative to compound 2
[44] = tested on: MDA-MB-468; assay type: cell-based, human; details: 10^Δ2-x, relative to compound 2
[45] = tested on: 60 cancer cell lines; assay: cells; assay type: cell-based, human; details: for GI50: Homo sapiens
[46] = tested on: panel of 12 tumor cell lines implanted in mice; assay: NCI hollow fiber assay; assay type: in vivo
[47] = Plasma pharmacokinetics; assay type: in vivo, CD-1 mice; details: mice, iv 18 mg/kg
[48] = tested on: COLO-205 colon cancer cells; assay: Subcutaneous COLO-205 colon xenograft; assay type: in vivo, athymic nu/nu mice; details: iv q2dx10 at 10 mg/Kg and q3dx10 at 20 mg/Kg
[49] = tested on: SK-MEL-2 melanoma cells; assay: Subcutaneous SK-MEL-2 melanoma xenograft; assay type: in vivo, athymic nu/nu mice; details: iv q2dx10 at 10 mg/Kg and q3dx10 at 20 mg/Kg
[50] = CD-1, mouse, in vivo
[51] = tested on: EWS-FLI1 transcription factor; details: compared to 1, as opposed to a non-specific promoter; cited from earlier work
[52] = Assays of toxicity, maximum tolerated dose; details: in vivo

CO[C@@H]([C@@H]1Cc2cc3cc(O[C@H]4C[C@@H](O[C@H]5C[C@@H](O)[C@H](O)[C@@H](C)O5)[C@H](O)[C@@H](C)O4)c(C)c(O)c3c(O)c2C(=O)[C@H]1O[C@H]1C[C@@H](O[C@H]2C[C@@H](O[C@H]3C[C@H](O)[C@H](O)[C@@H](C)O3)[C@H](O)[C@@H](C)O2)[C@H](O)[C@@H](C)O1)[C@@H](O)C(C)=O [Compound 9, demycarosyl-3D-β-D-digitoxosyl-mithramycin SK]
activity improvement factor [1]: 1.14
activity improvement factor [2]: 2.24
activity improvement factor [3]: 0.73
activity improvement factor [4]: 1.11
activity improvement factor [5]: 2.04
activity improvement factor [6]: 1.60
activity improvement factor [7]: 2.26
activity improvement factor [8]: 1.86
activity improvement factor [9]: 1.19
activity improvement factor [10]: 2.26
activity improvement factor [11]: 1.17
activity improvement factor [12]: 1.00
activity improvement factor [13]: 3.55
activity improvement factor [14]: 1.66
activity improvement factor [15]: 1.40
activity improvement factor [16]: 2.00
activity improvement factor [17]: 1.30
activity improvement factor [18]: 1.55
activity improvement factor [19]: 0.93
activity improvement factor [20]: 1.26
activity improvement factor [21]: 1.23
activity improvement factor [22]: 2.19
activity improvement factor [23]: 1.82
activity improvement factor [24]: 1.23
activity improvement factor [25]: 1.46
activity improvement factor [26]: 1.62
activity improvement factor [27]: 1.66
activity improvement factor [28]: 1.02
activity improvement factor [29]: 7.16
activity improvement factor [30]: 3.51
activity improvement factor [31]: 1.97
activity improvement factor [32]: 1.51
activity improvement factor [33]: 2.24
activity improvement factor [34]: 4.47
activity improvement factor [35]: 1.64
activity improvement factor [36]: 0.86
activity improvement factor [37]: 1.70
activity improvement factor [38]: 2.40
activity improvement factor [39]: 4.62
activity improvement factor [40]: 4.47
activity improvement factor [41]: 0.92
activity improvement factor [42]: 2.75
activity improvement factor [43]: 0.94
activity improvement factor [44]: 1.48
GI50 ([45]; read-out: Mean GI50): 30 nM
GI50 ([45]; read-out: Mean log(GI50) (converted)): 30.2 nM
fold more active than 10, in average ([45]; NCI-60 GI50): about 5 fold
hollow fiber assay total score ([46]; 12 tumor cell lines, daily ip for four days): 66/96
hollow fiber assay intraperitoneal score ([46]; intraperitoneal implants): 36/48
hollow fiber assay subcutaneous score ([46]; subcutaneous implants): 30/48
plasma level ([47]; after 30 min): ~1,7 μM
plasma level ([47]; after 120 min): below 0,1 μM
tumor growth of COLO-205 colon xenografts [48]: reduced notably
growth of SK-MEL-2 human melanoma xenografts [49]: markedly delayed
fold less toxic than compound 3 [50]: about 2 fold
inhibition of luciferase activity driven by NRB01 [51]: inhibits more effectively
fold less toxicity than parental compound 1, single treatment [52]: about 32 fold
